According to patent US20260176320A1, “MODULATORS OF G-PROTEIN COUPLED RECEPTORS” (priority 2018, published 2026):
Read-outs that look alike come from different tables or passages of the source.

Legend:
GLP-1R [1] = target: T1, GLP-1R (Homo sapiens, UniProt P43220); test: HitHunter cAMP assay (GLP-1R); type: cell-based; settings: Table 3A, cAMP
Outline: (§1)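 Duplicate 22-point, 2-fold agonist titrations applied to receptor-expressing suspension cells in IBMX-containing HBSS; 30 min RT stimulation. Read: luminescent cAMP immunocompetition after O/N dark incubation.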

GIP-R = target: T2, GIP-R (Homo sapiens, UniProt P48546); test: HitHunter cAMP assay (GIP-R); type: cell-based; settings: Table 3A, cAMP; for Emax: read-out: (Emax) GIP-R
T2 sequence (P48546 22-466): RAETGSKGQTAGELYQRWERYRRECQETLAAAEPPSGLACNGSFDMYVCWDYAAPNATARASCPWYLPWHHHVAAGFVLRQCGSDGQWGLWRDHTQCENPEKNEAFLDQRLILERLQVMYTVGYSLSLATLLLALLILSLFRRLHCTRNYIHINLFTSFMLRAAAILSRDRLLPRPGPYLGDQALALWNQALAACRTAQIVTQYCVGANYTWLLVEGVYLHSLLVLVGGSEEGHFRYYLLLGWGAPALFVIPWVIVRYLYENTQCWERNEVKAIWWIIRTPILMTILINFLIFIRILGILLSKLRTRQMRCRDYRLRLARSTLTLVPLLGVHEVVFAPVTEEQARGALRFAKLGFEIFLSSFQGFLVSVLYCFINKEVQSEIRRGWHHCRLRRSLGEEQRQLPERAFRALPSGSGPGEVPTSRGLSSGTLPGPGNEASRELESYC
Outline: as §1

GLP-1R [2] = target: T1, GLP-1R; test: PathHunter β-arrestin assay; type: cell-based
Outline: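 Following a 90 min agonist exposure at 37 °C in 0.2% BSA medium, β-arrestin coupling was detected by chemiluminescence after 3 h at room temperature.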

mice [3] = test: Conditioned taste aversion (CTA) in mice; type: in vivo, mouse; settings: s.c., 30 nmol/kg, saccharine preference vs vehicle
Description: A value of CTA=0.0-0.6 indicates significant aversion to a compound. The conditioned taste aversion assay measures the preference for a dilute saccharin solution that is associated with compound administration.
One week before start of experiment (Day-7), animals were transferred to single house double grommet cages. A 50 ml water bottle was placed, and consistently replaced when refilled in the same grommet to habituate the animal to a “water” side. After 7 days of baseline water consumption, animals began the taste preference procedure. On Day 1, the animals were weighed and deprived of water at […]. On acquisition day (Day 2), mice had access to a single bottle containing 0.15% saccharin solution, on the opposite side to the “water” habituated side and allowed to consume for 3 h, from 6 pm until 9 pm. The saccharine bottles were then removed and weighed to record the 3 h consumption. […] On Day 3, the water was removed and weighed at 6 pm. On Day 4, both saccharine and water bottles were weighed and returned simultaneously to respective grommet at 6 pm. On Day 5, the bottles were removed at 6 pm and weighed. Saccharine consumption was measured as a percent of the total amount of fluid consumed. The reduction of saccharin consumption during the retrieval was used as a measure of CTA strength. Liraglutide and semaglutide were used as positive controls.

mice [4] = test: Glucose tolerance test (GTT); type: in vivo, mouse; settings: 24 h GTT, s.c., dose range 2-5 nmol/kg, percent of vehicle
Outline: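 Compounds diluted in PBS from 1 mM DMSO stocks and given subcutaneously 15 min (5-6 h fast), 4 h (16 h overnight fast), 16 h or 24 h before intraperitoneal glucose (2 g/kg). Tail blood glucose read at 10–120 min post-glucose, at least 6 mice per time-point. Glucose AUC over time determined.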

T1 sequence (P43220 24-463): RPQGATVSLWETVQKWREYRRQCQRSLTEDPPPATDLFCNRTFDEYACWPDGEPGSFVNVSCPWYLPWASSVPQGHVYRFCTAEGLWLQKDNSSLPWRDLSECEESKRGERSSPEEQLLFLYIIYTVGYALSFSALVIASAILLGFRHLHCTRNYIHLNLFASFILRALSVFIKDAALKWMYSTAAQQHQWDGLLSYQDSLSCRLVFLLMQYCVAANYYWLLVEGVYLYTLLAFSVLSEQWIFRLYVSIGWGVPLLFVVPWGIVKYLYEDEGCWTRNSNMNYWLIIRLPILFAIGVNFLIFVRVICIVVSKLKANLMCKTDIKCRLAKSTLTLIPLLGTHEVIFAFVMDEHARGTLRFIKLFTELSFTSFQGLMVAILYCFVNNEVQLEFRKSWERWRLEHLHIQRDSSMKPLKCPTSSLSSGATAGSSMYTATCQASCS

Structure (SMILES)	EC50 (GLP-1R [1]; EC50 GLP-1R/nM)	EC50 (GIP-R; EC50 GIP-R/nM)	Emax (GIP-R)	EC50 (GLP-1R [2])	CTA score (mice [3])	Emax (GLP-1R [1]; read-out: (Emax) GLP-1R)	EC50 (GLP-1R [1]; read-out: EC50 GLP-1R/nM)	EC50 (GIP-R; read-out: EC50 GIP-R/nM)	AUC score (mice [4])	EC50 (GLP-1R [2]; PathHunter β-arrestin assay, read-out: β-arrestin activity EC50)
CCCCCCCCCCCCCCCC(=O)N[C@@H](CCC(=O)NCCCC[C@H](NC(=O)[C@H](CO)NC(=O)[C@@H]1CCCN1C(=O)[C@@H]1CCCN1C(=O)[C@@H]1CCCN1C(=O)[C@H](C)NC(=O)CNC(=O)[C@H](CO)NC(=O)[C@H](CO)NC(=O)[C@@H]1CCCN1C(=O)CNC(=O)CNC(=O)[C@H](C)NC(=O)[C@H](CC(C)C)NC(=O)[C@H](CC(C)C)NC(=O)[C@H](Cc1c[nH]c2ccccc12)NC(=O)[C@H](CC(N)=O)NC(=O)[C@@H](NC(=O)[C@H](Cc1ccccc1)NC(=O)[C@H](CCC(=O)O)NC(=O)C(C)(C)NC(=O)[C@H](C)NC(=O)[C@H](C)NC(=O)[C@H](CCC(N)=O)NC(=O)[C@H](CCCCN)NC(=O)[C@H](CC(=O)O)NC(=O)[C@H](CC(C)C)NC(=O)[C@H](Cc1ccc(O)cc1)NC(=O)[C@@H](NC(=O)[C@H](CO)NC(=O)[C@H](Cc1ccc(O)cc1)NC(=O)[C@H](CC(=O)O)NC(=O)[C@H](CO)NC(=O)[C@@H](NC(=O)[C@H](Cc1ccccc1)NC(=O)[C@@H](NC(=O)CNC(=O)[C@H](CCC(=O)O)NC(=O)CSCC(=O)NCCN1CCC(O)CC1=O)[C@@H](C)O)[C@@H](C)O)[C@@H](C)CC)C(C)C)C(N)=O)C(=O)O (single isomer, unassigned) [Compound 202]	< 0.1 nM	0.1 to 1 nM	67%	> 1000 nM	4 (Score 4 = 76-100%)	–	–	–	–	–
CCCCCCCCCCCCCCCC(=O)N[C@@H](CCC(=O)NCCCC[C@H](NC(=O)[C@H](CO)NC(=O)[C@@H]1CCCN1C(=O)[C@@H]1CCCN1C(=O)[C@@H]1CCCN1C(=O)[C@H](C)NC(=O)CNC(=O)[C@H](CO)NC(=O)[C@H](CO)NC(=O)[C@@H]1CCCN1C(=O)CNC(=O)CNC(=O)[C@H](C)NC(=O)[C@H](CC(C)C)NC(=O)[C@H](CC(C)C)NC(=O)[C@H](Cc1c[nH]c2ccccc12)NC(=O)[C@H](CC(N)=O)NC(=O)[C@@H](NC(=O)[C@H](Cc1ccccc1)NC(=O)[C@H](CCC(=O)O)NC(=O)C(C)(C)NC(=O)[C@H](C)NC(=O)[C@H](C)NC(=O)[C@H](CCC(N)=O)NC(=O)[C@H](CCCCN)NC(=O)[C@H](CC(=O)O)NC(=O)[C@H](CC(C)C)NC(=O)[C@H](Cc1ccc(O)cc1)NC(=O)[C@@H](NC(=O)[C@H](CO)NC(=O)[C@H](Cc1ccc(O)cc1)NC(=O)[C@H](CC(=O)O)NC(=O)[C@H](CO)NC(=O)[C@@H](NC(=O)[C@H](Cc1ccccc1)NC(=O)[C@@H](NC(=O)CNC(=O)[C@H](CCC(=O)O)NC(=O)CCNC(=O)CN1CCCCCC1=O)[C@@H](C)O)[C@@H](C)O)[C@@H](C)CC)C(C)C)C(N)=O)C(=O)O [Compound 266]	–	–	70%	–	–	100%	< 0.1 nM	1 to 10 nM	2 (AUC score 2 = 26-50%)	< 10 nM
